Values joined by “and” are separate entries in the source; they are usually repeats but may differ in a detail not shown here. Identical values can stand only once.
Tests used:
[1] = tested on: urogenous smell; assay: Test Example 1: smell of fresh urine of cats, potassium phytate solution 8mg/ml; type: in vivo; set-up: key to Deodorizing Effects 1st day / Deodorizing Effects 3rd day / Deodorizing Effects 5th day / Deodorizing Effects 7th day / Deodorizing Effects 14th day: 1: No change; 2: Weaken; 3: Almost no recognizable smell
Procedure: A solution containing potassium phytate in an amount of 8mg/ml (Example 1) was administered to cats (5 heads, body weight of about 5kg) in an amount of 3ml/head/day over 14 days. After 1, 3, 5, 7 and 14 days from the first administration, fresh urine was taken with use of a catheter to immediately check a degree of its smell by 3 judges. […]

[2] = tested on: urogenous smell; assay: Test Example 2: smell of fresh urine of cats, potassium phytate solution 20mg/ml; type: in vivo, crossbred mature cats; set-up: key to Deodorizing Effects 1st day / Deodorizing Effects 3rd day / Deodorizing Effects 5th day / Deodorizing Effects 7th day: 1: No change; 2: Weaken; 3: Almost no recognizable smell; conditions: 20mg/ml solution
Procedure: A solution containing potassium phytate in an amount of 20mg/ml (Example 1) was administered to crossbred mature cats (8 heads, body weight of about 5kg) in an amount of 3ml/head/day over 7 days. After 1, 3, 5 and 7 days from the first administration, fresh urine was taken with use of a catheter to immediately check a degree of its smell by 3 judges. […]

[3] = tested on: urogenous smell; assay: Test Example 3: smell of fresh urine of cats, potassium phytate/lactose powder in food; type: in vivo, crossbred mature cats; set-up: key to Deodorizing Effects 1st day / Deodorizing Effects 3rd day / Deodorizing Effects 5th day / Deodorizing Effects 7th day: 1: No change; 2: Weaken; 3: Almost no recognizable smell
Procedure: A powder composition was prepared by mixing potassium phytate and lactose, which composition containing the phytate in an amount of 24mg/g. The composition was mixed with a powdered food which was […] by crossbred mature cats (8 heads, body weight of about 5kg) in an amount of 1g/head/day based on the composition over 7 days. After 1, 3, 5 and 7 days from the first administration, fresh urine was taken with use of a catheter to immediately check a degree of its smell by 3 judges. […]

[4] = tested on: urogenous smell; assay: Test Example 4: smell of fresh urine of cats, cat food containing potassium phytate; type: in vivo, crossbred mature cats; set-up: key to Deodorizing Effects 2nd day / Deodorizing Effects 3rd day / Deodorizing Effects 4th day / Deodorizing Effects 5th day / Deodorizing Effects 7th day: 1: No change; 2: Weaken; 3: Almost no recognizable smell; conditions: cat food with 0.1mg/g
Procedure: To a moisture type cat food, potassium phytate was composed in an amount of 0.1mg/g. The cat food was given to crossbred mature cats (2 heads, body weight of about 5kg) in an amount 100g/day over 7 days. After 2, 3, 4, 5 and 7 days from the first administration, fresh urine was taken with use of a catheter to immediately check a degree of its smell by 3 judges. […]

[5] = tested on: urogenous smell; assay: Test Example 5: smell of fresh urine of rabbits, potassium phytate in drinking water; type: in vivo; set-up: key to Deodorizing Effects 1st day / Deodorizing Effects 3rd day / Deodorizing Effects 5th day / Deodorizing Effects 7th day / Deodorizing Effects 14th day: 1: No change; 2: Weaken; 3: Almost no recognizable smell
Procedure: An aqueous solution containing potassium phytate in an amount of 20mg/ml was added to 170 ml of drinking water for each experimented animal (rabbits, 2 heads) in amount of 2ml. The resulting drinking water was given for each day over 14 days, so that it can be […] by the animal in free together with their food. After 1, 3, 5, 7 and 14 days from the first giving of the drinking water containing the compound, fresh urine was taken with use of a catheter to immediately check a degree of its smell by 3 judges. […] While, there was no change in a fragrant smell which may be considered due to plant terpenes contained in their food.

[6] = tested on: urogenous smell; assay: Test Example 6: urogenous smell of hamsters, potassium phytate in drinking water; type: in vivo; conditions: hamsters (2 pairs); 10mg/kg in drinking water over 14 days; checked on finely cut newspaper used as litter
Procedure: An aqueous solution containing potassium phytate in an amount of 20mg/ml was prepared. The solution was added to drinking water for each experimented animal (hamsters, 2 pairs) over 14 days, so that each animal can intake the compound in an amount of 10mg/kg.

[7] = tested on: ozostomy; type: in vivo, normal persons; conditions: 3 judges
Procedure: Following substances generating unpleasant smell were intaken by each panel (3 normal persons) who immediately drinks an aqueous solution of potassium phytinate (105mg/10ml). On contrary thereto, each control panel drinks were drinking water in same amount.
An inspection of ozostmy was carried out from time to time at intervals by 3 judges (to be judged as positive, when 2 or 3 judges feel the unpleasant smell) and by self notification of the experimented person.
Unpleasant smell generating materials : • a) Garlic (10g as grated one), • b) Leek (50g as cooked one), • c) Scallion (50g as pickled one), • d) Onion (100g as grated one), • e) Welsh onion (100g as cooked one), • f) Tobacco (carrying out a functional test by the third party on smokers who smoke more than 50 cigarette per diem), and • g) Alcohol (drink 300ml of Japanese sake, when the stomach of experimented person emties).

[8] = tested on: urogenous smell; assay: Test Example 10: urogenous smell of rats fed high protein cat food; type: in vivo; set-up: key: Judged by 4 stage judgement of ++, +, ± and −; Judged by 4 stage judgement of ++, +, ± and −; Judged by 4 stage judgement of ++, +, ± and −; Judged by 4 stage judgement of ++, +, ± and −
Procedure: As experimental animal, rats were employed, they had been fed with a cat food of high protein content (30%) to excrete urine with a smell inherent in that of cats. To test group I, potassium phytate was administrated in abdominal cavity at a dose of 3mg/day over 5 days and while, to test group II, the compound was given in the similar to the above but at a dose of 30mg/day. To control group, no compound was given.

[9] = cats, 8mg/ml solution, 3ml/head/day
[10] = cats, powder 24mg/g, 1g/head/day in food
[11] = rabbits, potassium phytate in drinking water
[12] = test group I: 3mg/day in abdominal cavity over 5 days
[13] = test group II: 30mg/day in abdominal cavity over 5 days

Structure (SMILES): O=P(O)(O)O[C@H]1[C@H](OP(=O)(O)O)[C@@H](OP(=O)(O)O)[C@H](OP(=O)(O)O)[C@@H](OP(=O)(O)O)[C@H]1OP(=O)(O)O [potassium phytate, Potassium phytate]
- Efficiency 1st day ([1]; cats (5 heads), 8mg/ml solution, 3ml/head/day, 1st day): 0/5
- Efficiency 3rd day ([1]; cats (5 heads), 8mg/ml solution, 3ml/head/day, 3rd day): 0/5
- Efficiency 5th day ([1]; cats (5 heads), 8mg/ml solution, 3ml/head/day, 5th day): 4/5
- Efficiency 7th day ([1]; cats (5 heads), 8mg/ml solution, 3ml/head/day, 7th day): 5/5
- Efficiency 14th day ([1]; cats (5 heads), 8mg/ml solution, 3ml/head/day, 14th day): 5/5
- deodorizing effect of the compound appears [1, 9]: by third day
- urogenous smell was disappeared [1, 9]: on fifth day
- similar test repeated ([1]; cats, repeated after 10 days from the final administration): results same with said first test
- urogenous smell after the final administration ([1]; cats, several days after the final administration): appeared again
- Deodorizing Effects 3rd day ([1]; individual cat, 8mg/ml solution, 3ml/head/day over 14 days, 3rd day): 1 and 2 (4×)
- Deodorizing Effects 5th day ([1]; individual cat, 8mg/ml solution, 3ml/head/day over 14 days, 5th day): 2 and 3 (4×)
- Deodorizing Effects 7th day ([1]; individual cat, 8mg/ml solution, 3ml/head/day over 14 days, 7th day): 3
- Deodorizing Effects 14th day ([1]; individual cat, 8mg/ml solution, 3ml/head/day over 14 days, 14th day): 3
- Deodorizing Effects 1st day ([1]; individual cat, 8mg/ml solution, 3ml/head/day over 14 days, fresh urine, 3 judges, 1st day): 1
- Efficiency 1st day ([2]; cats (8 heads), 3ml/head/day, 1st day): 0/8
- Efficiency 3rd day ([2]; cats (8 heads), 3ml/head/day, 3rd day): 0/8
- Efficiency 5th day ([2]; cats (8 heads), 3ml/head/day, 5th day): 8/8
- Efficiency 7th day ([2]; cats (8 heads), 3ml/head/day, 7th day): 8/8
- deodorizing effect of the compound appears ([2]; cats, 3ml/head/day): by third day
- urogenous smell disappeared ([2]; cats, 3ml/head/day): on fifth day
- Deodorizing Effects 1st day ([2]; individual cat, 3ml/head/day over 7 days, 1st day): 1 (6×) and 2 (2×)
- Deodorizing Effects 3rd day ([2]; individual cat, 3ml/head/day over 7 days, 3rd day): 2
- Deodorizing Effects 5th day ([2]; individual cat, 3ml/head/day over 7 days, 5th day): 3
- Deodorizing Effects 7th day ([2]; individual cat, 3ml/head/day over 7 days, 7th day): 3
- Efficiency 1st day ([3]; cats (8 heads), powder 24mg/g, 1g/head/day in food, 1st day): 0/8
- Efficiency 3rd day ([3]; cats (8 heads), powder 24mg/g, 1g/head/day in food, 3rd day): 2/8
- Efficiency 5th day ([3]; cats (8 heads), powder 24mg/g, 1g/head/day in food, 5th day): 8/8
- Efficiency 7th day ([3]; cats (8 heads), powder 24mg/g, 1g/head/day in food, 7th day): 8/8
- deodorizing effect of the compound appears [3, 10]: by third day
- urogenous smell disappeared [3, 10]: on fifth day
- Deodorizing Effects 1st day ([3]; individual cat, powder with lactose 24mg/g, 1g/head/day in food over 7 days, 1st day): 1 (4×) and 2 (4×)
- Deodorizing Effects 3rd day ([3]; individual cat, powder with lactose 24mg/g, 1g/head/day in food, 3rd day): 3 (2×) and 2 (6×)
- Deodorizing Effects 5th day ([3]; individual cat, powder with lactose 24mg/g, 1g/head/day in food, 5th day): 3
- Deodorizing Effects 7th day ([3]; individual cat, powder with lactose 24mg/g, 1g/head/day in food, 7th day): 3
- Efficiency 2nd day ([4]; cats (2 heads), 100g/day, 2nd day): 0/2
- Efficiency 3rd day ([4]; cats (2 heads), 100g/day, 3rd day): 1/2
- Efficiency 4th day ([4]; cats (2 heads), 100g/day, 4th day): 2/2
- Efficiency 5th day ([4]; cats (2 heads), 100g/day, 5th day): 2/2
- Efficiency 7th day ([4]; cats (2 heads), 100g/day, 7th day): 2/2
- deodorizing effect of the compound appears ([4]; cats, 100g/day): by third day
- urogenous smell disappeared ([4]; cats, 100g/day): on forth day
- Deodorizing Effects 2nd day ([4]; individual cat, 100g/day over 7 days, 2nd day): 2
- Deodorizing Effects 3rd day ([4]; individual cat, 100g/day, 3rd day): 3 and 2
- Deodorizing Effects 4th day ([4]; individual cat, 100g/day, 4th day): 3
- Deodorizing Effects 5th day ([4]; individual cat, 100g/day, 5th day): 3
- Deodorizing Effects 7th day ([4]; individual cat, 100g/day, 7th day): 3
- Deodorizing Effects 1st day ([5]; individual rabbit, 2ml of 20mg/ml solution in 170 ml drinking water per day over 14 days, 1st day): 1
- Deodorizing Effects 3rd day ([5]; individual rabbit, 2ml of 20mg/ml solution in 170 ml drinking water per day, 3rd day): 2 (3×) and 1
- Deodorizing Effects 5th day ([5]; individual rabbit, 2ml of 20mg/ml solution in 170 ml drinking water per day, 5th day): 3 (3×) and 2
- Deodorizing Effects 7th day ([5]; individual rabbit, 2ml of 20mg/ml solution in 170 ml drinking water per day, 7th day): 3
- Deodorizing Effects 14th day ([5]; individual rabbit, 2ml of 20mg/ml solution in 170 ml drinking water per day, 14th day): 3
- Efficiency 1st day ([5]; rabbits, 2ml of 20mg/ml solution in drinking water per day, 1st day): 0/4
- Efficiency 3rd day ([5]; rabbits, 2ml of 20mg/ml solution in drinking water per day, 3rd day): 0/4
- Efficiency 5th day ([5]; rabbits, 2ml of 20mg/ml solution in drinking water per day, 5th day): 3/4
- Efficiency 7th day ([5]; rabbits, 2ml of 20mg/ml solution in drinking water per day, 7th day): 4/4
- Efficiency 14th day ([5]; rabbits, 2ml of 20mg/ml solution in drinking water per day, 14th day): 4/4
- almost no unpleasant urogenous smell was notified [5, 11]: on fifth day
- deodorizing effect of the compound appears [5, 11]: by third day
- fragrant smell (considered due to plant terpenes contained in their food) [5, 11]: no change
- intensity of the urogenous smell [6]: decreases on several days from the first administration
- ozostomy on the test group, first inspection ([7]; aqueous solution 105mg/10ml drunk immediately after intake of smell generating material, 1 hour from the intake): not so strong
- ozostomy on the test group, second inspection ([7]; aqueous solution 105mg/10ml, 3 hours from the intake): apparently decreases
- Urogenous Smell 3rd day [8, 12]: +
- Urogenous Smell 6th day [8, 12]: ±
- Urogenous Smell 9th day [8, 12]: +
- Urogenous Smell 3rd day [8, 13]: ±
- Urogenous Smell 6th day [8, 13]: ±
- Urogenous Smell 9th day [8, 13]: +

Source: patent EP0326963B1, “Deodorant as well as deodorizing food, drink and seasoning” (priority 1988, dated 1989)
